Data from patent US20230364029A1, “POLYMORPHIC FORMS OF (R)-2-HYDROXY-2-METHYL-4-(2,4,5-TRIMETHYL-3,6-DIOXOCYCLOHEXA-1,4-DIENYL)BUTANAMIDE” (PTC THERAPEUTICS, INC., priority 2014, published 2023).
In brackets after ≈: the same amount, converted by molar mass.

What was measured:
Type in all cases: physicochemical
[1] = Grinding experiments; conditions: for XRPD after grinding: RT; for Stability of crystal form to grinding: light grinding, dry and with IPA or water
Method: Grinding experiments of the starting material were performed by dry grinding and solvent drop grinding in IPA and water utilizing a mortar and pestle (Table 18).

[2] = Solubility measurement of Pattern A in 17 solvent systems (gravimetric); conditions: for solubility: thermodynamic from solid
Excerpt: (R)-Trolox was produced from racemic Trolox via methylbenzyl amine double resolution in a manner similar to that described in Example 29 of U.S. Pat. No. 4,026,907. This (R)-Trolox was used to synthesize the (R)-2-hydroxy-2-methyl-4-(2,4,5-trimethyl-3,6-dioxocyclohexa-1,4-dienyl)butanamide starting material. This starting material, designated as Pattern A, was used for the solubility measurement.
Excess amount of solid was slurried in 17 solvent systems having diverse properties for minimum of 3 days. The slurry was centrifuged and the clear solution was used for gravimetric method. […] Limited solubility was observed from heptane, toluene, MTBE, water and 0.5% Methyl Cellulose in water at ambient and elevated temperatures. Table 9 presents the measured solubility data. A ±10% error is expected.

[3] = 7 day elevated aqueous humidity studies; conditions: for XRPD [Pattern] 7 day: form after 7 days
Method: 7 day elevated aqueous humidity experiments were performed on all Patterns A, B, C, D, E and F at ambient conditions at > 95%RH (Table 17). Approximately 30 mg of each pattern was weighed into a 4 ml glass vial. The uncovered 4 ml vial was inserted into a 20 ml scintillation vial half filled with water and capped. Following 24 hours of equilibration, visual inspection was performed to check for changes in physical appearance, however no change was observed.

[4] = Moisture sorption analysis; conditions: for Hygroscopicity: moisture sorption, 0-95% RH cycles
Method: (§1) Moisture sorption analysis of the starting material was performed by equilibrating the sample at 25° C. and 50% RH to simulate ambient lab conditions. Humidity then decreased to 0% RH, increased from 0 to 95% RH, reduced from 95 to 0% RH, increased from 0 to 95 %RH and then decreased from 95 to 50% RH. Each point represents the estimated asymptotic weight for each humidity or weight. […] No hysteresis was observed upon desorption (FIG. 14).
as §1, with “of Pattern E (from” for “of”, “300 mg scale lot)” for “starting material”, “Humidity was” for “Humidity”, “19).” for “14).”
Moisture sorption analysis of Pattern C (300 mg lot) was performed by equilibrating the sample at 25° C. and 50% RH to simulate ambient lab conditions. Humidity was then decreased to 0% RH, increased from 0 to 95% RH, reduced from 95 to 0% RH, increased from 0 to 95%RH and then decreased from 95 to 50% RH. Each point represents the estimated asymptotic weight for each humidity or weight. […] This increased the total water to about 6% which is the water content of mono-hydrate. However, upon reducing the relative humidity, the solid lost its water. Therefore this could be a channel hydrate. No hysteresis was observed upon desorption (FIG. 24).
as §1, with “Pattern B (300 mg lot)” for “the starting material”, “The major weight loss at the beginning” for “No hysteresis”, “due to loss of solvent.” for “observed upon desorption (FIG. 14).”
as §1, with “Pattern F (from Example 6)” for “the starting material”, “Humidity was” for “Humidity”, “The major weight loss at the beginning is due to loss of solvent.” for “No hysteresis was observed upon desorption (FIG. 14).”

[5] = Short term slurry experiments (form by XRPD); conditions: slurried in most of 17 solvents, min. 3 days
Method: Short term slurry experiments of the starting material, Pattern A, were performed for a minimum of 3 days in 17 different solvent systems having diverse properties at two different temperatures (25 and 50° C.). A 48 position Chemglass reaction block was used for heating and stirring the slurries which were in 2 mL HPLC vials. After the due time, vials were centrifuged and the wet solids were used for X-ray diffraction.

[6] = Aqueous solubility (HPLC); conditions: water, thermodynamic from solid, ambient conditions, 24 hours of equilibration
Method: Aqueous solubility of Patterns A, B, C, E and F was performed using an Agilent HPLC system. Approximately 10-20 mg of each form was charged to a 2 mL glass vial loaded with a magnetic stir bar and added 2 mL of water. The samples were allowed to stir overnight at ambient conditions. Following 24 hours of equilibration the samples were centrifuged and decanted into HPLC vials. A calibration curve was generated based on Pattern A in MeOH at 0.05, 0.1, 0.5 and 1.0 mg/mL. Following injection of the standard curve, the samples were run as is.

CC1=C(C)C(=O)C(CC[C@@](C)(O)C(N)=O)=C(C)C1=O [Pattern A, (R)-2-hydroxy-2-methyl-4-(2,4,5-trimethyl-3,6-dioxocyclohexa-1,4-dienyl)butanamide]
XRPD after grinding ([1]; dry grinding, mortar and pestle): Pattern A | Stability of crystal form to grinding [1]: no change in the crystal form | Stability of crystal form to grinding ([1]; listed as Form I): stability to grinding | XRPD after grinding ([1]; solvent drop grinding, H2O (2 drops)): Pattern A | XRPD after grinding ([1]; solvent drop grinding, IPA (2 drops)): Pattern A | Solubility in a simple detergent ([2]; 0.5% MC/2% Tween 80): increased solubility | solubility ([2]; 0.5% methyl cellulose in water, 25 °C, aqueous with cosolvent or surfactant or cyclodextrin, 0.5% MC in Water, part of the concentration relates to solvent constituents): 7 mg/mL (≈ 26.4 mM) | solubility ([2]; 0.5% methyl cellulose in water, 50 °C, aqueous with cosolvent or surfactant or cyclodextrin, 0.5% MC in Water, part of the concentration relates to solvent constituents): 4 mg/mL (≈ 15.1 mM) | solubility ([2]; 0.5% methyl cellulose/2% Tween 80, 25 °C, aqueous with cosolvent or surfactant or cyclodextrin, 0.5% MC/2% Tween 80, 25° C., part of the concentration relates to solvent constituents): 26 mg/mL (≈ 98 mM) | solubility ([2]; 0.5% methyl cellulose/2% Tween 80, 50 °C, aqueous with cosolvent or surfactant or cyclodextrin, 0.5% MC/2% Tween 80, 50° C., part of the concentration relates to solvent constituents): 30 mg/mL (≈ 113 mM) | solubility ([2]; 2-MeTHF, 25 °C, organic solvent or mixture, gravimetric): 35 mg/mL (≈ 132 mM) | solubility ([2]; 2-MeTHF, 50 °C, organic solvent or mixture, gravimetric): 59 mg/mL (≈ 222 mM) | solubility ([2]; 4% DMA in PBS, 25 °C, aqueous buffer, part of the concentration relates to solvent constituents): 10 mg/mL (≈ 37.7 mM) | solubility ([2]; 4% DMA in PBS, 50 °C, aqueous buffer, part of the concentration relates to solvent constituents): 13 mg/mL (≈ 49 mM) | solubility ([2]; EtOAc, 25 °C, organic solvent or mixture, gravimetric): 22 mg/mL (≈ 82.9 mM) | solubility ([2]; EtOAc, 50 °C, organic solvent or mixture, gravimetric): 38 mg/mL (≈ 143 mM) | solubility ([2]; EtOH, 25 °C, organic solvent or mixture, gravimetric): 40 mg/mL (≈ 151 mM) | solubility ([2]; EtOH, 50 °C, organic solvent or mixture, gravimetric): > 121 mg/mL | Solubility in polar and non-polar solvents ([2]; Example 2, summary statement): soluble in a variety of polar and non-polar solvents | solubility ([2]; IPA, 25 °C, organic solvent or mixture, gravimetric): 20 mg/mL (≈ 75.4 mM) | solubility ([2]; IPA, 50 °C, organic solvent or mixture, gravimetric): 53 mg/mL (≈ 200 mM) | solubility ([2]; IPAc, 25 °C, organic solvent or mixture, gravimetric): 13 mg/mL (≈ 49 mM) | solubility ([2]; IPAc, 50 °C, organic solvent or mixture, gravimetric): 16 mg/mL (≈ 60.3 mM) | solubility ([2]; MTBE, 25 °C, organic solvent or mixture, gravimetric): 10 mg/mL (≈ 37.7 mM) | solubility ([2]; MTBE, 50 °C, organic solvent or mixture, gravimetric): 16 mg/mL (≈ 60.3 mM) | solubility ([2]; MeCN, 25 °C, organic solvent or mixture, gravimetric): 20 mg/mL (≈ 75.4 mM) | solubility ([2]; MeCN, 50 °C, organic solvent or mixture, gravimetric): 38 mg/mL (≈ 143 mM) | solubility ([2]; MeOH, 25 °C, organic solvent or mixture, gravimetric): > 101 mg/mL | solubility ([2]; MeOH, 50 °C, organic solvent or mixture, gravimetric): > 112 mg/mL | solubility ([2]; THF, 25 °C, organic solvent or mixture, gravimetric): 28 mg/mL (≈ 106 mM) | solubility ([2]; THF, 50 °C, organic solvent or mixture, gravimetric): 33 mg/mL (≈ 124 mM) | solubility ([2]; acetone, 25 °C, organic solvent or mixture, gravimetric): 39 mg/mL (≈ 147 mM) | solubility ([2]; acetone, 50 °C, organic solvent or mixture, gravimetric): 90 mg/mL (≈ 339 mM) | solubility ([2]; heptane, 25 °C, organic solvent or mixture, slurry min. 3 days, gravimetric): 6 mg/mL (≈ 22.6 mM) | solubility ([2]; heptane, 50 °C, organic solvent or mixture, slurry min. 3 days, gravimetric): 6 mg/mL (≈ 22.6 mM) | solubility ([2]; toluene, 25 °C, organic solvent or mixture, gravimetric): 3 mg/mL (≈ 11.3 mM) | solubility ([2]; toluene, 50 °C, organic solvent or mixture, gravimetric): < 18 mg/mL | solubility ([2]; water, 25 °C, ^1Water (second water line), gravimetric): 2 mg/mL (≈ 7.54 mM) | solubility ([2]; water, 25 °C, gravimetric): 3 mg/mL (≈ 11.3 mM) | solubility ([2]; water, 50 °C, ^1Water (second water line), gravimetric): 6 mg/mL (≈ 22.6 mM) | solubility ([2]; water, 50 °C, gravimetric): 3 mg/mL (≈ 11.3 mM) | Visual Observations 1 day ([3]; > 95 %RH at Ambient): Yellow solids | Visual Observations 7 day ([3]; > 95 %RH at Ambient): Yellow Solids | XRPD [Pattern] 7 day ([3]; > 95 %RH at Ambient): no change in form | XRPD [Pattern] 7 day ([3]; > 95 %RH at Ambient, listed as A): Crystalline [Pattern A] | Stability to elevated humidity ([3]; Example 8, summary statement): stability to elevated humidity | XRPD following moisture sorption analysis ([4]; after 0-95% RH cycles at 25° C.): consistent with the starting material, Pattern A | Water adsorbed ([4]; at 90 %RH, 25° C.): 0.1% | Hygroscopicity ([4]; 25° C.): non-hygroscopic | Hygroscopicity ([4]; 25° C., listed as Form I): non-hygroscopic | Hysteresis upon desorption ([4]; moisture sorption-desorption, 25° C.): No hysteresis | Stability of form in short term slurry [5]: relatively stable | solubility at 24 h [6]: 1.74 mg/mL (≈ 6.56 mM)
